Reference: patent US12128049B2, “Dosage regimen of paliperidone palmitate extended-release injectable suspension” (Luye Innomind Pharma Shijiazhuang Co., Ltd., priority 2017, dated 2024)
Where “and” joins values, the source holds several entries; their conditions need not be identical. Equal values may be shown once.

Tests used:
[1] = over a broad pH range; cited from earlier work
[2] = PK in beagle dogs under RLD regimen: IM 4.6 mg/kg day 1, 3.1 mg/kg day 8, 2.3 mg/kg day 36 (Groups I, IV); assay type: in vivo
Experimental: (§1) 20 healthy male beagle dogs (average weight about 11 kg) were randomly divided into 5 groups (Groups I-V) with 4 dogs in each group. Each animal was assigned its own number (#1-#20).
(§2) Group I animals (#1-#4) and Group IV animals (#13-#16) were tested under RLD regimen. Group II animals (#5-#8) were tested under Regimen A. Group III animals (#9-#12) and Group V animals (#17-#20) were tested under Regimen B. Table 5 summarizes the respective human dosages (mg of paliperidone) and the equivalent animal dosages (converted to mg/kg) and the dosing intervals under each dosing regimen.
(§3) The animals in each group received intramuscular injections according to the dosing regimen assigned to the group. Blood samples (1 ml/collection) were collected from the forelimb vein of each beagle immediate before administration (at 0 h), and thereafter at time intervals of 6 h (day 1), 24 hr (day 2), day 3, day 5, day 8 (prior to dosing for groups receiving RLD regimen), day 9, day 11, day 13, day 15 (prior to dosing for groups receiving Regimen A), day 17, day 19, day 22, day 24, day 26, day 29 (prior to dosing for groups receiving Regimen A), day 30, day 32, day 34, day 36 (prior to dosing for groups receiving RLD and Regimen A), day 37, day 39, day 42, day 45, day 47, day 50, day 53, day 57, day 64, day 71, day 78, and day 85. The blood samples were placed in heparinized centrifuge tubes and centrifuged for 10 min (3500 rpm). The plasma was separated, collected and stored under −80° C.

[3] = PK in beagle dogs under Regimen A: IM 6.2 mg/kg day 1, 1.5 mg/kg day 15, 2.3 mg/kg day 36 (Group II); assay type: in vivo
Experimental: as §1, §2, §3

[4] = PK in beagle dogs under Regimen B: IM 6.9 mg/kg day 1, 3.1 mg/kg day 29 (Groups III, V); assay type: in vivo
Experimental: as §1, §2, §3

[5] = Regimen B, Group V vs Group IV (FIG. 10B)

SMILES: CCCCCCCCCCCCCCCC(=O)OC1CCCn2c1nc(C)c(CCN1CCC(c3noc4cc(F)ccc34)CC1)c2=O (racemic) [paliperidone palmitate, (9RS)-3-[2-[4-(6-Fluoro-1,2-benzisoxazol-3-yl)piperidin-1-yl]ethyl]-2-methyl-4-oxo-6,7,8,9-tetrahydro-4H-pyrido[1,2-a]pyrimadin-9-yl hexadecanoate]
- solubility in aqueous media [1]: practically insoluble
- AUC(0-t) ([2]; Group I, individual dogs): 3632.18 µg·days/L and 2010.03 µg·days/L and 3477.47 µg·days/L and 4210.47 µg·days/L
- AUC(0-∞) ([2]; Group I, individual dogs): 3682.95 µg·days/L and 2012.83 µg·days/L and 4010.14 µg·days/L and 4214.96 µg·days/L
- AUC(0-t) ([2]; Group I, mean): 3332.54 µg·days/L
- AUC(0-∞) ([2]; Group I, mean): 3480.22 µg·days/L
- AUC(0-t) ([2]; Group IV, individual dogs): 2528.69 µg·days/L and 3241.40 µg·days/L and 3191.02 µg·days/L and 1190.27 µg·days/L
- AUC(0-∞) ([2]; Group IV, individual dogs): 2546.38 µg·days/L and 3312.15 µg·days/L and 3194.15 µg·days/L and 1311.82 µg·days/L
- AUC(0-t) ([2]; Group IV, mean): 2537.85 µg·days/L
- AUC(0-∞) ([2]; Group IV, mean): 2591.12 µg·days/L
- AUC(0-t) ([3]; individual dogs): 4069.12 µg·days/L and 3146.75 µg·days/L and 3336.44 µg·days/L and 2282.89 µg·days/L
- AUC(0-∞) ([3]; individual dogs): 4285.47 µg·days/L and 3544.02 µg·days/L and 3446.66 µg·days/L and 2612.80 µg·days/L
- AUC(0-t) ([3]; mean): 3208.80 µg·days/L
- AUC(0-∞) ([3]; mean): 3472.24 µg·days/L
- overall drug exposures (AUC) ([4]; RLD Regimen, Regimen A and Regimen B, Groups I-III (FIG. 10A)): comparable for all three Regimens
- Cmax vs RLD Regimen ([4]; Regimen B, Group III vs Group I (FIG. 10A)): comparable to that of RLD Regimen
- Cmax vs RLD Regimen [4, 5]: comparable to that of RLD Regimen
- time to Cmax vs RLD Regimen [4, 5]: reached Cmax earlier
- trough (day 28) vs RLD Regimen [4, 5]: comparable to the same-day concentration of RLD Regimen and higher than the trough of the RLD Regimen
